Where two headings read alike, the source gives them in different places. Blank lines part the entries; values can stand above or below the compound they belong to.
Assays:
[1] = test system: fMLF/CB-induced human neutrophils (elastase release); assay: Elastase release in fMLF/CB-induced human neutrophils; assay type: cell-based; conditions: Neutrophil; for inhibition at 10 µM: Homo sapiens, percentage of inhibition at 10 μM, read-out: Elastase Inh %; for IC50: fMLF/CB-induced human neutrophils
Protocol: (§1) Human neutrophils were isolated from the blood of healthy adult volunteers and enriched by using dextran sedimentation, Ficoll–Hypaque gradient centrifugation, and hypotonic lysis, as described previously. Then, neutrophils were incubated in Ca^2+-free HBSS buffer (pH 7.4, ice-cold).
Neutrophils (6 × 10^5 cells/mL) incubated (with 100 μM MeO-Suc-Ala-Ala-Pro-Val-p- nitroanilide and 1 mM Ca^2+) in HBSS at 37 °C were treated with DMSO or the tested compound for 5 min. Neutrophils were, then, activated with fMLF (100 nM)/CB (0.5 μg/mL) for 10 min. The change of elastase release was spectrophotomically measured at 405 nm (U-3010, Hitachi, Tokyo, Japan).

[2] = test system: fMLF/CB-induced human neutrophils (superoxide anion generation); assay: Superoxide anion generation in fMLF/CB-induced human neutrophils; assay type: cell-based; conditions: Neutrophil; for inhibition at 10 µM: Homo sapiens, percentage of inhibition at 10 μM, read-out: Superoxide Anion Inh %; for IC50: fMLF/CB-induced human neutrophils
Protocol: as §1
Neutrophils (6 × 10^5 cells/mL) incubated (with 0.6 mg/mL ferricytochrome c and 1 mM Ca^2+) in HBSS at 37 °C were treated with DMSO (as control) or tested compound for 5 min. Neutrophils were primed by 1 μg/mL cytochalasin B (CB) for 3 min before being activated by 100 nM fMLF for 10 min. The change of superoxide anion generation was spectrophotomically measured at 550 nm (U-3010, Hitachi, Tokyo, Japan). LY294002 [2-(4-morpholinyl)-8-phenyl-1(4H)-benzopyran- 4-one] was used as a positive control.

[3] = dash per footnote b, read-out: Elastase IC50 (dash class)
[4] = dash per footnote b, read-out: Superoxide Anion IC50 (dash class)
[5] = mean ± SEM (n ≥ 3), read-out: Elastase IC50
[6] = mean ± SEM (n ≥ 3), read-out: Superoxide Anion IC50

Structure (SMILES): CC(C)CCC[C@@H](C)[C@H]1CC[C@H]2C3=CC(=O)[C@@]4(O)C[C@@H](O)CC[C@]4(C)[C@H]3CC[C@]12C [Compound 7, cholesta-7-ene-3β,5α-diol-6-one]
inhibition at 10 µM ([1]; mean ± SEM (n ≥ 3)): 25.9%
IC50 [1, 3]: > 10 µM
inhibition at 10 µM ([2]; mean ± SEM (n ≥ 3)): 12.8%
IC50 [2, 4]: > 10 µM

Structure (SMILES): C/C(=C\CCc1ccoc1)CCC(=O)O [Compound 2, (E)-7-(furan-3-yl)-4-methylhept-4-enoic acid]
inhibition at 10 µM ([1]; mean ± SEM (n ≥ 3)): 14%
IC50 [1, 3]: > 10 µM
inhibition at 10 µM ([2]; mean ± SEM (n ≥ 3)): 3.47%
IC50 [2, 4]: > 10 µM

Structure (SMILES): C/C(=C\CC(=O)NO)CCCc1ccoc1 [Compound 3, spongiafuranohydroxamic acid A]
inhibition at 10 µM ([1]; mean ± SEM (n ≥ 3)): 18%
IC50 [1, 3]: > 10 µM
inhibition at 10 µM ([2]; mean ± SEM (n ≥ 3)): 8.85%
IC50 [2, 4]: > 10 µM

Structure (SMILES): CC12CCC3C(C)(C1CCc1cocc12)C(O)C1(O)C(=O)OCC31C (centres unmarked) [Compound 1, 17-dehydroxysponalactone]
inhibition at 10 µM ([1]; mean ± SEM (n ≥ 3)): 90.3%
IC50 [1, 5]: 4.07 µM
inhibition at 10 µM ([2]; mean ± SEM (n ≥ 3)): 91.4%
IC50 [2, 6]: 3.37 µM

Now from value to compound, other results behind:

IC50 [1, 3]: > 10 µM
IC50 [2, 4]: > 10 µM
Structure (SMILES): CC(=CCCc1ccoc1)CCC=C(C)CCC(O)C1(C)CCC(=O)O1 (stereo not drawn) [Compound 4, 16-epi-irciformonin G]
inhibition at 10 µM ([1]; mean ± SEM (n ≥ 3)): -1.07%
inhibition at 10 µM ([2]; mean ± SEM (n ≥ 3)): 2.61%

IC50 [1, 3]: > 10 µM
IC50 [2, 4]: > 10 µM
Structure (SMILES): CC1=C(O)C(=O)CC2(C)C1CCC1(CO)c3cocc3CCC12 (centres unmarked) [Compound 6, 18-nor-3,17-dihydroxyspongia-3,13(16),14-trien-2-one]
inhibition at 10 µM ([1]; mean ± SEM (n ≥ 3)): 19.2%
inhibition at 10 µM ([2]; mean ± SEM (n ≥ 3)): 9.44%

IC50 [1, 5]: 2.58 µM
IC50 [2, 6]: 1.88 µM
Structure (SMILES): O=c1cc(N2CCOCC2)oc2c(-c3ccccc3)cccc12 [LY294002, 2-(4-morpholinyl)-8-phenyl-1(4H)-benzopyran-4-one, reference compound]
inhibition at 10 µM ([1]; mean ± SEM (n ≥ 3)): 77.6%
inhibition at 10 µM ([2]; mean ± SEM (n ≥ 3)): 90.3%

IC50 [1, 3]: > 10 µM
IC50 [2, 6]: 5.31 µM
Structure (SMILES): C/C(=C\CCc1ccoc1)CCC(=O)N[C@H]1CCOC1=O [Compound 5, (−)-sponalisolide B]
inhibition at 10 µM ([1]; mean ± SEM (n ≥ 3)): 35.2%
inhibition at 10 µM ([2]; mean ± SEM (n ≥ 3)): 67.1%

Reference: paper PMC7830757, “An Anti-Inflammatory 2,4-Cyclized-3,4-Secospongian Diterpenoid and Furanoterpene-Related Metabolites of a Marine Sponge Spongia sp. from the Red Sea” (Marine Drugs, 2021)
